Legend:
Type in all cases: in vivo
[1] = tested on: yellow nutsedge (Cyperus esculentus); assay: Test B pre-/postemergence plant response; conditions: for Nutsedge, Yellow plant response rating (0 to 100 scale): 0 is no effect
In short: (§1)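 Test compounds, formulated in a non-phytotoxic solvent mixture with surfactant, are applied to the soil surface (loam and sand blend) right after seeding, or sprayed over plants at the 1- to 4-leaf stage grown in peat moss/vermiculite medium. After 13 to 15 days under glasshouse conditions, each species is scored visually from 0 (no effect) to 100 (complete control) against controls.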

[2] = tested on: goosegrass (Eleusine indica); assay: Test B pre-/postemergence plant response; conditions: for Goosegrass plant response rating (0 to 100 scale): 0 is no effect
In short: as §1

[3] = tested on: pigweed (Amaranthus retroflexus); assay: Test B pre-/postemergence plant response; conditions: for Pigweed plant response rating (0 to 100 scale): 0 is no effect
In short: as §1

[4] = tested on: giant foxtail (Setaria faberii); assay: Test B pre-/postemergence plant response; conditions: for Foxtail, Giant plant response rating (0 to 100 scale): 0 is no effect
In short: as §1

[5] = tested on: velvetleaf (Abutilon theophrasti); assay: Test B pre-/postemergence plant response; conditions: for Velvetleaf plant response rating (0 to 100 scale): 0 is no effect
In short: as §1

[6] = tested on: soybean (Glycine max); assay: Test B pre-/postemergence plant response; conditions: for Soybean plant response rating (0 to 100 scale): 0 is no effect
In short: as §1

[7] = tested on: johnsongrass (Sorghum halepense); assay: Test B pre-/postemergence plant response; conditions: for Johnsongrass plant response rating (0 to 100 scale): 0 is no effect
In short: as §1

[8] = tested on: green foxtail (Setaria viridis); assay: Test B pre-/postemergence plant response; conditions: for Foxtail, Green plant response rating (0 to 100 scale): 0 is no effect
In short: as §1

[9] = tested on: corn (Zea mays); assay: Test B pre-/postemergence plant response; conditions: for Corn plant response rating (0 to 100 scale): 0 is no effect
In short: as §1

[10] = tested on: lambsquarters (Chenopodium album); assay: Test B pre-/postemergence plant response; conditions: for Lambsquarters plant response rating (0 to 100 scale): 0 is no effect
In short: as §1

[11] = tested on: windgrass (Apera spica-venti); assay: Test B postemergence plant response; conditions: for Windgrass plant response rating (0 to 100 scale): 0 is no effect
In short: (§2)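 Plants grown in peat/vermiculite medium were sprayed postemergence at 2–18 cm height (1- to 4-leaf stage). After 13–15 days in the greenhouse, response was rated visually against untreated controls on a 0–100 scale (0 no effect, 100 complete control).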

[12] = tested on: canarygrass (Phalaris minor); assay: Test B postemergence plant response; conditions: for Canarygrass plant response rating (0 to 100 scale): 0 is no effect
In short: as §2

[13] = tested on: chickweed (Stellaria media); assay: Test B postemergence plant response; conditions: for Chickweed plant response rating (0 to 100 scale): 0 is no effect
In short: as §2

[14] = tested on: winter barley (Hordeum vulgare); assay: Test B postemergence plant response; conditions: for Barley plant response rating (0 to 100 scale): 0 is no effect, 13 to 15 days
In short: as §2

[15] = 31 g ai/ha, postemergence, scale 0 to 100, 0 is no effect, 100 is complete control
[16] = 62 g ai/ha, postemergence, 100 is complete control, 13 to 15 days
[17] = Postemergence, 250 g ai/ha, scale 0 to 100 (0 no effect, 100 complete control)
[18] = Postemergence, 125 g ai/ha, visual rating after 13 to 15 days, scale 0 (no effect) to 100 (complete control)
[19] = 62 g ai/ha, postemergence, 100 is complete control
[20] = Postemergence, 31 g ai/ha, 0 to 100 scale (0 no effect, 100 complete control)
[21] = Postemergence, 62 g ai/ha, scale 0 to 100 (0 no effect, 100 complete control)
[22] = Postemergence, 125 g ai/ha, scale 0 to 100 (0 no effect, 100 complete control)
[23] = Postemergence, 250 g ai/ha, scale 0 to 100 (0 no effect, 100 complete control), 13 to 15 days
[24] = 16 g ai/ha, Postemergence, 0 to 100 scale

## CCCCn1c(-c2ccccc2)ncc(C(=O)C2=C(O)CCCC2=O)c1=O [Compound 86]
[1]; [15]
  Plant response rating, Nutsedge, Yellow: 65
[1]; [16]
  Nutsedge, Yellow plant response rating (0 to 100 scale): 70
[1]; [17]
  Plant response rating, Nutsedge, Yellow: 85
[2]; [15]
  Plant response rating, Goosegrass: 70
[2]; [16]
  Goosegrass plant response rating (0 to 100 scale): 75
[2]; [17]
  Plant response rating, Goosegrass: 95
[3]; [15]
  Plant response rating, Pigweed: 98
[3]; [16]
  Pigweed plant response rating (0 to 100 scale): 100
[3]; [17]
  Plant response rating, Pigweed: 100
[4]; [15]
  Plant response rating, Foxtail, Giant: 90
[4]; [16]
  Foxtail, Giant plant response rating (0 to 100 scale): 95
[4]; [17]
  Plant response rating, Foxtail, Giant: 98
[5]; [15]
  Plant response rating, Velvetleaf: 98
[5]; [16]
  Velvetleaf plant response rating (0 to 100 scale): 100
[5]; [17]
  Plant response rating, Velvetleaf: 100
[6]; [15]
  Plant response rating, Soybean: 80
[6]; [16]
  Soybean plant response rating (0 to 100 scale): 95
[6]; [17]
  Plant response rating, Soybean: 98
[7]; [15]
  Plant response rating, Johnsongrass: 95
[7]; [16]
  Johnsongrass plant response rating (0 to 100 scale): 98
[7]; [17]
  Plant response rating, Johnsongrass: 100
[8]; [15]
  Plant response rating, Foxtail, Green: 70
[8]; [16]
  Foxtail, Green plant response rating (0 to 100 scale): 95
[8]; [17]
  Plant response rating, Foxtail, Green: 100
[9]; [15]
  Plant response rating, Corn: 10
[9]; [16]
  Corn plant response rating (0 to 100 scale): 60
[9]; [18]
  Plant response rating, Corn: 80
[9]; [17]
  Plant response rating, Corn: 85
[10]; [15]
  Plant response rating, Lambsquarters: 100
[10]; [16]
  Lambsquarters plant response rating (0 to 100 scale): 100
[10]; [17]
  Plant response rating, Lambsquarters: 100
[11]; [15]
  Plant response rating, Windgrass: 30
[11]; [16]
  Windgrass plant response rating (0 to 100 scale): 60
[11]; [17]
  Plant response rating, Windgrass: 95
[12]; [15]
  Plant response rating, Canarygrass: 20
[12]; [16]
  Canarygrass plant response rating (0 to 100 scale): 20
[12]; [18]
  Plant response rating, Canarygrass: 80
[12]; [17]
  Plant response rating, Canarygrass: 85
[13]; [15]
  Plant response rating, Chickweed: 80
[13]; [16]
  Chickweed plant response rating (0 to 100 scale): 95
[13]; [18]
  Plant response rating, Chickweed: 95
[13]; [17]
  Plant response rating, Chickweed: 98
[14]; [15]
  Plant response rating, Barley: 30
[14]; [19]
  Barley plant response rating (0 to 100 scale): 40
[14]; [18]
  Plant response rating, Barley: 60
[14]; [17]
  Plant response rating, Barley: 65

## COCCn1c(-c2cccc(F)c2)ncc(C(=O)C2=C(O)C3CCC(C3)C2=O)c1=O (stereo not drawn) [Compound 235]
[1]; [20]
  Plant response rating, Nutsedge, Yellow: 45
[1]; [21]
  Plant response rating, Nutsedge, Yellow: 45
[1]; [22]
  Plant response rating, Nutsedge, Yellow: 55
[1]; [23]
  Plant response rating, Nutsedge, Yellow: 60
[2]; [20]
  Plant response rating, Goosegrass: 95
[2]; [21]
  Plant response rating, Goosegrass: 98
[2]; [22]
  Plant response rating, Goosegrass: 98
[2]; [23]
  Plant response rating, Goosegrass: 100
[3]; [20]
  Plant response rating, Pigweed: 100
[3]; [21]
  Plant response rating, Pigweed: 100
[3]; [23]
  Plant response rating, Pigweed: 100
[4]; [20]
  Plant response rating, Foxtail, Giant: 98
[4]; [21]
  Plant response rating, Foxtail, Giant: 100
[4]; [22]
  Plant response rating, Foxtail, Giant: 100
[4]; [23]
  Plant response rating, Foxtail, Giant: 100
[5]; [20]
  Plant response rating, Velvetleaf: 95
[5]; [21]
  Plant response rating, Velvetleaf: 100
[5]; [23]
  Plant response rating, Velvetleaf: 100
[6]; [20]
  Plant response rating, Soybean: 98
[6]; [21]
  Plant response rating, Soybean: 100
[6]; [23]
  Plant response rating, Soybean: 100
[7]; [20]
  Plant response rating, Johnsongrass: 70
[7]; [21]
  Plant response rating, Johnsongrass: 80
[7]; [22]
  Plant response rating, Johnsongrass: 100
[7]; [23]
  Plant response rating, Johnsongrass: 100
[8]; [20]
  Plant response rating, Foxtail, Green: 90
[8]; [21]
  Plant response rating, Foxtail, Green: 90
[8]; [22]
  Plant response rating, Foxtail, Green: 95
[8]; [23]
  Plant response rating, Foxtail, Green: 98
[9]; [20]
  Plant response rating, Corn: 95
[9]; [21]
  Plant response rating, Corn: 100
[9]; [22]
  Plant response rating, Corn: 100
[9]; [23]
  Plant response rating, Corn: 100
[10]; [20]
  Plant response rating, Lambsquarters: 98
[10]; [21]
  Plant response rating, Lambsquarters: 100
[10]; [22]
  Plant response rating, Lambsquarters: 100
[10]; [23]
  Plant response rating, Lambsquarters: 100
[11]; [20]
  Plant response rating, Windgrass: 85
[11]; [21]
  Plant response rating, Windgrass: 95
[11]; [23]
  Plant response rating, Windgrass: 98
[12]; [20]
  Plant response rating, Canarygrass: 20
[12]; [21]
  Plant response rating, Canarygrass: 30
[12]; [22]
  Plant response rating, Canarygrass: 30
[12]; [23]
  Plant response rating, Canarygrass: 30
[13]; [20]
  Plant response rating, Chickweed: 98
[13]; [21]
  Plant response rating, Chickweed: 100
[13]; [22]
  Plant response rating, Chickweed: 100
[13]; [23]
  Plant response rating, Chickweed: 100
[14]; [20]
  Plant response rating, Barley: 0
[14]; [21]
  Plant response rating, Barley: 30
[14]; [22]
  Plant response rating, Barley: 40

## O=C1CCCC(O)=C1C(=O)c1cnc(-c2ccccc2)n(C2CCCC2)c1=O [Compound 131]
[1]; [24]
  Plant response rating, Nutsedge, Yellow: 0
[1]; [16]
  Nutsedge, Yellow plant response rating (0 to 100 scale): 25
[1]; [20]
  Plant response rating, Nutsedge, Yellow: 15
[1]; [22]
  Plant response rating, Nutsedge, Yellow: 45
[2]; [24]
  Plant response rating, Goosegrass: 65
[2]; [16]
  Goosegrass plant response rating (0 to 100 scale): 65
[2]; [20]
  Plant response rating, Goosegrass: 65
[2]; [22]
  Plant response rating, Goosegrass: 75
[3]; [24]
  Plant response rating, Pigweed: 60
[3]; [16]
  Pigweed plant response rating (0 to 100 scale): 95
[3]; [20]
  Plant response rating, Pigweed: 90
[3]; [22]
  Plant response rating, Pigweed: 100
[4]; [24]
  Plant response rating, Foxtail, Giant: 65
[4]; [16]
  Foxtail, Giant plant response rating (0 to 100 scale): 75
[4]; [20]
  Plant response rating, Foxtail, Giant: 75
[4]; [22]
  Plant response rating, Foxtail, Giant: 80
[5]; [24]
  Plant response rating, Velvetleaf: 70
[5]; [16]
  Velvetleaf plant response rating (0 to 100 scale): 85
[5]; [20]
  Plant response rating, Velvetleaf: 80
[5]; [22]
  Plant response rating, Velvetleaf: 98
[6]; [24]
  Plant response rating, Soybean: 75
[6]; [16]
  Soybean plant response rating (0 to 100 scale): 95
[6]; [20]
  Plant response rating, Soybean: 75
[6]; [22]
  Plant response rating, Soybean: 98
[7]; [24]
  Plant response rating, Johnsongrass: 0
[7]; [16]
  Johnsongrass plant response rating (0 to 100 scale): 25
[7]; [20]
  Plant response rating, Johnsongrass: 5
[7]; [22]
  Plant response rating, Johnsongrass: 50
[8]; [24]
  Plant response rating, Foxtail, Green: 40
[8]; [16]
  Foxtail, Green plant response rating (0 to 100 scale): 90
[8]; [20]
  Plant response rating, Foxtail, Green: 70
[8]; [22]
  Plant response rating, Foxtail, Green: 95
[9]; [24]
  Plant response rating, Corn: 0
[9]; [16]
  Corn plant response rating (0 to 100 scale): 10
[9]; [20]
  Plant response rating, Corn: 0
[9]; [22]
  Plant response rating, Corn: 20
[10]; [24]
  Plant response rating, Lambsquarters: 75
[10]; [16]
  Lambsquarters plant response rating (0 to 100 scale): 95
[10]; [20]
  Plant response rating, Lambsquarters: 85
[10]; [22]
  Plant response rating, Lambsquarters: 98
[11]; [24]
  Plant response rating, Windgrass: 0
[11]; [16]
  Windgrass plant response rating (0 to 100 scale): 0
[11]; [20]
  Plant response rating, Windgrass: 0
[11]; [22]
  Plant response rating, Windgrass: 5
[12]; [24]
  Plant response rating, Canarygrass: 0
[12]; [16]
  Canarygrass plant response rating (0 to 100 scale): 0
[12]; [20]
  Plant response rating, Canarygrass: 0
[12]; [22]
  Plant response rating, Canarygrass: 0
[13]; [24]
  Plant response rating, Chickweed: 45
[13]; [16]
  Chickweed plant response rating (0 to 100 scale): 80
[13]; [20]
  Plant response rating, Chickweed: 65
[13]; [22]
  Plant response rating, Chickweed: 90
[14]; [24]
  Plant response rating, Barley: 0
[14]; [19]
  Barley plant response rating (0 to 100 scale): 0
[14]; [20]
  Plant response rating, Barley: 0
[14]; [22]
  Plant response rating, Barley: 0

From patent US8952024B2, “Herbicidal pyrimidone derivatives” (E I du Pont de Nemours and Company, priority 2009, dated 2015)
